Test results published in paper PMC9296036, “A peptide interfering with the dimerization of oncogenic KITENIN protein and its stability suppresses colorectal tumour progression” (Clinical and Translational Medicine, 2022).
Ends that are not written are not given here.

Biological target: T1, KITENIN homodimer (Homo sapiens, UniProt Q8TAA9)
T1 construct: Lysates of 293T cells expressing full‐length KITENIN‐myc; expressed in transfected cells; host or cells: Caco2
T1 sequence (Q8TAA9 1-524): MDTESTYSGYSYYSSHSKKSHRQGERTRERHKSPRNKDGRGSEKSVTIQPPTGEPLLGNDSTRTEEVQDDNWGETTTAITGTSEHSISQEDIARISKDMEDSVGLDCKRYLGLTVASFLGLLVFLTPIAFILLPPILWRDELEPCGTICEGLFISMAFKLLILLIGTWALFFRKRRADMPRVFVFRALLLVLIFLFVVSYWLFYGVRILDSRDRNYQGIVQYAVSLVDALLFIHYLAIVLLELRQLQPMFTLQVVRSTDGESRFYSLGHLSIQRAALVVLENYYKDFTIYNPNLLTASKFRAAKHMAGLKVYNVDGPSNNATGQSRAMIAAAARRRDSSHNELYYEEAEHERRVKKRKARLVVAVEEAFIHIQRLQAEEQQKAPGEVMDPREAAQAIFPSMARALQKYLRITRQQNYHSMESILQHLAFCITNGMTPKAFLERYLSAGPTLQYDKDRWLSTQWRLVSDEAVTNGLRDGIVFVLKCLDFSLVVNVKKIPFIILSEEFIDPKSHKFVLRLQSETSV
Assay: In vitro pull-down of purified KITENIN-GST and KITENIN-His
Assay type: biochemical
Details: KDIP 5 μM, 4°C, 2 h, GST pull-down
Protocol: GST‐KITENIN or its derivatives were immobilized on glutathione‐sepharose beads. Myc‐tagged KITENIN was incubated with GST‐tagged KITENIN or its derivative proteins immobilized on glutathione‐sepharose as indicated. The bound protein complexes were eluted and analysed by SDS–PAGE followed by IB. To detect in vitro KITENIN homodimerization, […] GST‐KITENIN was incubated with Ni‐NTA‐purified KITENIN‐His and KDIP (5 μM) in the pull‐down buffer (50‐mM Tris.Cl [pH 7.5], 1‐mM dithiothreitol [DTT] 4% [v/v] glycerol, .1 mg/ml of BSA, 5‐mM MgCl2, 1‐mM ATP and 50‐mM NaCl) at 4°C for 2 h. […]
FIGURE 2 KAI1 C‐terminal interacting tetraspanin (KITENIN) dimerization‐interfering peptide (KDIP) suppresses KITENIN‐induced enhanced cell invasion through the inhibition of the homodimerization of KITENIN. […] After 48 h of treatment, KITENIN transcripts in cells were analysed by the 2^−ΔΔ ^CT method using Q‐PCR. […] Caco2 cells were co‐transfected with KITENIN‐V5/Myc and treated with or without KDIP or scrambled peptide (scr) and were immunoprecipitated with anti‐V5 antibody and detected by indicated antibodies. Numerals indicated a quantification of the MYC bands normalized to the corresponding V5 bands (left panel). […] The histogram represents invading cells, which were counted at four chosen areas and shown by bar graphs (mean ± SEM, n = 4, ^** p < .01). […]

dimerization of purified KITENIN proteins in vitro (in words): directly reduced
Sequence: YARVRRRGPRRWRLVSDEAV [KDIP]
